In US20250381168A1, “VLA4 INHIBITORS AND USES THEREOF” (Washington University, priority 2022, published 2025):
Entries after “also recorded” stand apart in the source; their conditions may differ. Where two headings read alike, the source gives them in different places.

Legend:
VLA-4 (a4b1) = VLA-4 (a4b1) (Homo sapiens (Human), UniProt P05556+P13612); assay: sVCAM flow cytometry cell-based assay (inhibition of soluble VCAM-1 binding to G2 ALL cells);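 also: compounds at 0.1 to 1000 nM preincubated 30 min with G2 ALL cells, then VCAM/Fc added for 30 min, bound VCAM-1 detected by PE secondary antibody, percent binding cells by flow cytometry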
Procedure: VLA-4 (a4b1) inhibitor compounds were tested for their ability to inhibit the binding of soluble VCAM-1 to human G2 acute lymphoblastic leukemia (ALL) cells. Briefly, G2 ALL cells are pre-incubated with increasing concentrations (0.1 to 1000 nM) of compounds for 30 minutes. Soluble VCAM/Fc chimera protein (R & D systems) is then added to the mixture and the cells incubated for an additional 30 minutes. Afterwards, cells are washed and VCAM-1 is detected using a PE-conjugated secondary polyclonal antibody. In each experiment, an aliquot of cells are stained with isotype control antibodies to serve as a negative control. The percentage of VCAM-1 binding cells was then determined by flow cytometry.

integrin a4b7 = integrin a4b7 (Homo sapiens (Human), UniProt P13612+P26010); assay: a4b7 solid phase receptor assay (SPRA); details: recombinant human a4b7 binding to plate-coated human VCAM1 (TABLE 4)
Procedure: Wells were washed 3 times with TBS+ and blocking buffer (TBS+ with 1% bovine serum albumin), the plate was incubated for 1 hr at 37° C., and then washed 3× with TBS+ buffer. Recombinant human a4b7 (R & D Systems) was diluted to 1 μg/ml in TBS+/0.1% bovine serum albumin. Test compounds were diluted into the integrin solution and added to the washed ligand-coated plate according to a standard template with each sample repeated in triplicate. After incubation for 2 hr at room temperature, the plate was washed 3× with 150 μl of TBS+ buffer. To each well, biotinylated anti-A4 antibody (R & D Systems) at 1 μg/ml in TBS+/0.1% BSA was added and the plate covered and incubated for 1 hr at room temperature. After washing the plate 3× with TBS+ buffer, streptavidin-conjugated horseradish peroxidase (R & D Systems) diluted in TBS+ blocking buffer was added to the wells and the plate incubated for 20 min at room temperature. The plate was washed 3× with TBS+ buffer followed by addition of 50 μl of TMB substrate (Sigma T4444). After incubation for 20 min at room temperature, plates were stopped with TMB stop solution (Sigma S5689) by colorimetric detection at 450 nm wavelength using a Tecan Safire II plate reader.

[1] = test system: hematopoietic stem/progenitor cells (HSPCs); assay: HSPC mobilization into peripheral blood, colony forming unit (CFU) assay; as to HSPC mobilization, result in words: test concentration or dose not given here; as to No. CFU (×10^3)/mL ± SD, 6 hr: test concentration or dose not given here; details: mice; for No. CFU (x10^3)/mL ± SD, 2 hr / No. CFU (x10^3)/mL ± SD, 4 hr / No. CFU (x10^3)/mL ± SD, 6 hr / No. CFU (x10^3)/mL ± SD, 8 hr: single injection; for No. CFU (x10^3)/mL ± SD, 2 hr: 2 hr post dose (TABLE 12); for No. CFU (x10^3)/mL ± SD, 4 hr: 4 hr post dose (TABLE 12); for No. CFU (x10^3)/mL ± SD, 6 hr: 6 hr post dose (TABLE 12); for No. CFU (x10^3)/mL ± SD, 8 hr: 8 hr post dose (TABLE 12); for No. CFU (×10^3)/mL ± SD, 0.5 hr: 0.5 hr post dose (TABLE 7)
[2] = as listed in TABLE 12, read-out: sVCAM IC50
[3] = inhibition of sVCAM-1 binding to human G2 ALL cells (TABLE 3), read-out: SVCAM-1, IC50
[4] = as listed in TABLE 6, read-out: sVCAM IC50
[5] = as listed in TABLE 7, read-out: sVCAM IC50
[6] = single dose, peripheral blood, 2 hr post dose (TABLE 7)
[7] = single dose, peripheral blood, 4 hr post dose (TABLE 7)
[8] = single s.c. injection, peripheral blood, 0.25 hr post dose (TABLE 6)
[9] = single s.c. injection, peripheral blood, 2 hr post dose (TABLE 6)
[10] = single s.c. injection, peripheral blood, 4 hr post dose (TABLE 6)

VLA-4 (a4b1), sequence (P13612 34-1032): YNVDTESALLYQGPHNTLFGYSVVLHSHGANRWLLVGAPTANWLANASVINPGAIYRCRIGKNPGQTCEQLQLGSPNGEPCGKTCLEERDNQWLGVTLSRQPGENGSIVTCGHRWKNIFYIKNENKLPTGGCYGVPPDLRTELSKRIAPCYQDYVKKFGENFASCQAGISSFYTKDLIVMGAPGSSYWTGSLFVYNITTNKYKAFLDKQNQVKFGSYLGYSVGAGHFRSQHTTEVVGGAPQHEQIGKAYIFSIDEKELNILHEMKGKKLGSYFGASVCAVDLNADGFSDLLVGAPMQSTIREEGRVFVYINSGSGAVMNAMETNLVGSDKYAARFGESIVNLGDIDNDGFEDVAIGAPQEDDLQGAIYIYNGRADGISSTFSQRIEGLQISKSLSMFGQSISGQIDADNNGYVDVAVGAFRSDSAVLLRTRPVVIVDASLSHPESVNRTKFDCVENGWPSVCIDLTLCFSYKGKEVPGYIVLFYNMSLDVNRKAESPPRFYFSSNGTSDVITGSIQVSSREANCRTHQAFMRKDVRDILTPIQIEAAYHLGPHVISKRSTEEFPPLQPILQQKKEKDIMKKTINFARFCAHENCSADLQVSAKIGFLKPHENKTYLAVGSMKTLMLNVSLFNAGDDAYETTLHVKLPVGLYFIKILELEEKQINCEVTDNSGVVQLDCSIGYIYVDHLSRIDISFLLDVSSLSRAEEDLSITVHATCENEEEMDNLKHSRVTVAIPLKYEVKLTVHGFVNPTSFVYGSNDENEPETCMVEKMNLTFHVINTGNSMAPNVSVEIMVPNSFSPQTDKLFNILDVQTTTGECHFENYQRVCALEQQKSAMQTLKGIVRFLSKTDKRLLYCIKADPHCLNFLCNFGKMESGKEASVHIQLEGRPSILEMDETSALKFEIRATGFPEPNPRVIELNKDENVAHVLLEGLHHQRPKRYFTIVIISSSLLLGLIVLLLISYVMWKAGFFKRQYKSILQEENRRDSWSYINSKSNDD
VLA-4 (a4b1), sequence (P05556 21-798): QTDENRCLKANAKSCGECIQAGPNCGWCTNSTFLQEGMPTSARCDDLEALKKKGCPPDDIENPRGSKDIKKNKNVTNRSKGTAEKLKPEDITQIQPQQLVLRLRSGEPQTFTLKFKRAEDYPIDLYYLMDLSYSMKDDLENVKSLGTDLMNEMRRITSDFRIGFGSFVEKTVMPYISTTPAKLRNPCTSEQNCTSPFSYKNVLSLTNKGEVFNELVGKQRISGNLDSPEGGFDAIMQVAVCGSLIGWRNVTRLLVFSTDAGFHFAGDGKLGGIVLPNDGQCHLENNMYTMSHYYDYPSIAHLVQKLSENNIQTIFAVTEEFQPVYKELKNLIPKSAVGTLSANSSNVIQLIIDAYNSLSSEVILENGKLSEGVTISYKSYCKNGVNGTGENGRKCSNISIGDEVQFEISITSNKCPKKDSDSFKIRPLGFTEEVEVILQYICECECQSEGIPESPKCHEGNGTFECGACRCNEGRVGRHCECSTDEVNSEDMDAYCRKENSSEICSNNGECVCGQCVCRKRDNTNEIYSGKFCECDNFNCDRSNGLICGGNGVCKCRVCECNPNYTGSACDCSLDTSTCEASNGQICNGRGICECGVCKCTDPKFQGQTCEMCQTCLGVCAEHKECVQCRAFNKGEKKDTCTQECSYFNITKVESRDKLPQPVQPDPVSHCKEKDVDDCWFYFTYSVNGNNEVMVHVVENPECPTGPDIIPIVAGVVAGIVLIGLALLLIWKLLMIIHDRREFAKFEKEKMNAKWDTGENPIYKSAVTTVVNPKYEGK
integrin a4b7, sequence (P13612 34-970): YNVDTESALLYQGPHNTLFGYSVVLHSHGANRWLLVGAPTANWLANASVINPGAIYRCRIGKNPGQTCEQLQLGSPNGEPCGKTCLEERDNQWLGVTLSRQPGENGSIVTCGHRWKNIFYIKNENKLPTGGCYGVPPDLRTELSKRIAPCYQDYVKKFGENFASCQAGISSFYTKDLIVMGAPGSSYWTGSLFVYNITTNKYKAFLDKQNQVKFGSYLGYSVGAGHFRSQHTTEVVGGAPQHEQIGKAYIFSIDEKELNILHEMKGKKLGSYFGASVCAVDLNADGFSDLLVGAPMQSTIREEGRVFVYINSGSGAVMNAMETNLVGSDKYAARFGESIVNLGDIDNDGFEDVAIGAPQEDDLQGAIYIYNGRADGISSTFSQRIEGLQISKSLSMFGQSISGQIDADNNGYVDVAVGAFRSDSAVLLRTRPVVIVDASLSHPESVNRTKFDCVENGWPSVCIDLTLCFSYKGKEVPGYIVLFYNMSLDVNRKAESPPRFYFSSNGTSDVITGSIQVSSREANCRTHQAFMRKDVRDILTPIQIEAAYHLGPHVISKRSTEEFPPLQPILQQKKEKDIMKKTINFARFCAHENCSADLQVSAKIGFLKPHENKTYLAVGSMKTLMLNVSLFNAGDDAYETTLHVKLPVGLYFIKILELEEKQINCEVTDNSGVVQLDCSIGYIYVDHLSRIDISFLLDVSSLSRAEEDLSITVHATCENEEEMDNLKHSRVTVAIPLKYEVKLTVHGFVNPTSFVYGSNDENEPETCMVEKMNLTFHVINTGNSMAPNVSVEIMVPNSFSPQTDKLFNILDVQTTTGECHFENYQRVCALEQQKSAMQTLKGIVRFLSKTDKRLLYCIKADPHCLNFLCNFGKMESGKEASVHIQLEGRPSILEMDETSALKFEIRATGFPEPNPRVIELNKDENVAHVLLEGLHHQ
integrin a4b7, sequence (P26010 20-723): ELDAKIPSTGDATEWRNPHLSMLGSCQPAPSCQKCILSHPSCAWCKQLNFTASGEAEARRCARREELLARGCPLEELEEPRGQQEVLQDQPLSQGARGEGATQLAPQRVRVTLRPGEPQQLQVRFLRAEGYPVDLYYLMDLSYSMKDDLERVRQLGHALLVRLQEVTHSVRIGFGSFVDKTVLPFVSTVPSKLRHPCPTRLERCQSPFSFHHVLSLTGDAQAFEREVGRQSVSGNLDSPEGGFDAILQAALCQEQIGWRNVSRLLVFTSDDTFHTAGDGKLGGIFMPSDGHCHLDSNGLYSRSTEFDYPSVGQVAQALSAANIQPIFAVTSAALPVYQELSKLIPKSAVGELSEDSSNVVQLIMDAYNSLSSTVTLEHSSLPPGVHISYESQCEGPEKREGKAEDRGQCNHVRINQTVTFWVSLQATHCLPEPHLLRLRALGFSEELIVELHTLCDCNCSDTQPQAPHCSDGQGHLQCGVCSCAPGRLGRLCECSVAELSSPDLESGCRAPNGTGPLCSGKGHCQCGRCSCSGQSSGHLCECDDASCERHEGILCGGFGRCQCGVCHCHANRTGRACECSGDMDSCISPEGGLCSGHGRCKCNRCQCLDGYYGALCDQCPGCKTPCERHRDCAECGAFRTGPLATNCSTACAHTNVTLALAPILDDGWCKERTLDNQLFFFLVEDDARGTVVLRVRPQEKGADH

Row | Structure (SMILES) | IC50 (VLA-4 (a4b1); [2]) [nM] | IC50 (VLA-4 (a4b1); [3]) [nM] | IC50 (integrin a4b7) [nM] | IC50 (VLA-4 (a4b1); [4]) [nM] | IC50 (VLA-4 (a4b1); [5]) [nM] | time to which HSPC mobilization is extended after a single dose [1] [h] | HSPC mobilization, result in words ([1]; single dose) | No. CFU (x10^3)/mL ± SD, 2 hr ([1]; peripheral blood) | No. CFU (x10^3)/mL ± SD, 4 hr ([1]; peripheral blood) | No. CFU (x10^3)/mL ± SD, 6 hr ([1]; peripheral blood) | No. CFU (x10^3)/mL ± SD, 8 hr ([1]; peripheral blood) | No. CFU (×10^3)/mL ± SD, 0.5 hr ([1]; single dose, peripheral blood) | No. CFU (×10^3)/mL ± SD, 2 hr [1, 6] | No. CFU (×10^3)/mL ± SD, 4 hr [1, 7] | No. CFU (×10^3)/mL ± SD, 0.25 hr [1, 8] | No. CFU (×10^3)/mL ± SD, 2 hr [1, 9] | No. CFU (×10^3)/mL ± SD, 4 hr [1, 10] | other results
1 | COc1cccc(OC)c1-c1ccc(C[C@H](NC(=O)[C@]2(C)CCCN2S(=O)(=O)c2cc(Cl)cc(Cl)c2)C(=O)O)cc1 [Example C5] | – | 3.59 | – | 3.59 | – | – | – | – | – | – | – | – | – | – | 2.78 ± 0.48 (×10^3)/mL | 1.38 ± 0.53 (×10^3)/mL | 0.31 ± 0.09 (×10^3)/mL | –
2 | COc1cccc(OC)c1-c1ccc(C[C@H](CC(=O)c2c(Cl)cc(C(=O)O)cc2Cl)C(=O)O)cc1 [Example C1] | 4.9 | 4.98 | 1.1 | – | 4.9 | ≤ 2 | have returned to baseline | 0.67 ± 0.12 (x10^3)/mL | 0.42 ± 0.14 (x10^3)/mL | 0.26 ± 0.07 (x10^3)/mL | 0.22 ± 0.02 (x10^3)/mL | 0.96 ± 0.33 (×10^3)/mL | 0.33 ± 0.14 (×10^3)/mL | 0.08 ± 0.04 (×10^3)/mL | – | – | – | IC50 (VLA-4 (a4b1); as listed in TABLE 5, read-out: sVCAM IC50): 4.9 nM; IC50 (VLA-4 (a4b1); as listed in TABLE 20, read-out: sVCAM IC50): 4.9 nM; No. CFU (×10^3)/mL ± SD, 1 hr ([1]; single dose, peripheral blood, 1 hr post dose (TABLE 20)): 2.16 ± 1.22 (×10^3)/mL; No. CFU (×10^3)/mL ± SD, 4 hr ([1]; single dose, peripheral blood, 4 hr post dose (TABLE 20)): 0.26 ± 0.18 (×10^3)/mL; No. CFU (×10^3)/mL ± SD, 8 hr ([1]; single dose, peripheral blood, 8 hr post dose (TABLE 20)): 0.13 ± 0.10 (×10^3)/mL; HSPC mobilization, result in words ([1]; single dose, listed as Comparator Compound 1): returned to baseline by 4 hours; No. CFU (×10^3)/mL ± SD, 0.25 hr ([1]; single s.c. injection, peripheral blood, 0.25 hr post dose (TABLE 5)): 3.98 ± 1.09 (×10^3)/mL; No. CFU (×10^3)/mL ± SD, 2 hr ([1]; single s.c. injection, peripheral blood, 2 hr post dose (TABLE 5)): 0.86 ± 0.25 (×10^3)/mL; No. CFU (×10^3)/mL ± SD, 4 hr ([1]; single s.c. injection, peripheral blood, 4 hr post dose (TABLE 5)): 0.27 ± 0.20 (×10^3)/mL
3 | Cc1ccccc1NC(=O)Nc1ccc(CC(=O)N(C)[C@@H](CC(C)C)C(=O)NCC[C@H](NC(=O)[C@@H]2CCCN2S(=O)(=O)c2cc(Cl)cc(Cl)c2)C(=O)O)cc1 [BIO5192] | – | – | > 10000 | – | – | – | – | – | – | – | – | – | – | – | – | – | – | –

More lines, main results first:

Row | IC50 (VLA-4 (a4b1); [2]) [nM] | IC50 (VLA-4 (a4b1); [3]) [nM] | IC50 (integrin a4b7) [nM] | IC50 (VLA-4 (a4b1); [4]) [nM] | IC50 (VLA-4 (a4b1); [5]) [nM] | Structure (SMILES) | time to which HSPC mobilization is extended after a single dose [1] [h] | HSPC mobilization, result in words ([1]; single dose) | No. CFU (x10^3)/mL ± SD, 2 hr ([1]; peripheral blood) | No. CFU (x10^3)/mL ± SD, 4 hr ([1]; peripheral blood) | No. CFU (x10^3)/mL ± SD, 6 hr ([1]; peripheral blood) | No. CFU (x10^3)/mL ± SD, 8 hr ([1]; peripheral blood) | No. CFU (×10^3)/mL ± SD, 0.5 hr ([1]; single dose, peripheral blood) | No. CFU (×10^3)/mL ± SD, 2 hr [1, 6] | No. CFU (×10^3)/mL ± SD, 4 hr [1, 7] | No. CFU (×10^3)/mL ± SD, 0.25 hr [1, 8] | No. CFU (×10^3)/mL ± SD, 2 hr [1, 9] | No. CFU (×10^3)/mL ± SD, 4 hr [1, 10] | other results
4 | 1.49 | 1.49 | 1.5 | – | – | COCCOCCOCCOCCOCCOCCOCCOCCOCCOCCOCCOCCOCCOCCOCCOCCOCCOCCOCCOCCOCCOCCOCCOCCOCc1cc(OC)c(-c2ccc(C[C@H](NC(=O)c3c(Cl)cc(C(=O)O)cc3Cl)C(=O)O)cc2)c(OC)c1 [Example C17, (S)-4-((1-carboxy-2-(2′,6′-dimethoxy-4′-(2,5,8,11,14,17,20,23,26,29,32,35,38,41,44,47,50,53,56,59,62,65,68,71,74-pentacosaoxapentaheptacontyl)-[1,1′-biphenyl]-4-yl)ethyl)carbamoyl)-3,5-dichlorobenzoic acid] | ≤ 2 | returning to baseline by 4 hours and no mobilization at 6 hours; also recorded: does not extend mobilization; also recorded: do not provide for extended mobilization | 4.32 ± 1.23 (x10^3)/mL | 1.21 ± 0.40 (x10^3)/mL | 0.26 ± 0.07 (x10^3)/mL | 0.19 ± 0.09 (x10^3)/mL | – | – | – | – | – | – | IC50 (VLA-4 (a4b1); as listed in TABLE 10, read-out: sVCAM IC50): 1.49 nM; IC50 (VLA-4 (a4b1); as listed in TABLE 17, read-out: sVCAM IC50): 1.49 nM; HSPC mobilization in the triple combination regimen with plerixafor and truncated Groβ [1]: does not extend mobilization out to 6 hours; No. CFU (×10^3)/mL ± SD, 2 hr ([1]; alone or in combination with Plerixafor and tGroβ, peripheral blood, 2 hr (TABLE 17)): 4.77 ± 1.21 (×10^3)/mL; No. CFU (×10^3)/mL ± SD, 4 hr ([1]; alone or in combination with Plerixafor and tGroβ, peripheral blood, 4 hr (TABLE 17)): 0.81 ± 0.26 (×10^3)/mL; No. CFU (×10^3)/mL ± SD, 6 hr ([1]; alone or in combination with Plerixafor and tGroβ, peripheral blood, 6 hr (TABLE 17)): 0.26 ± 0.13 (×10^3)/mL; No. CFU (×10^3)/mL ± SD, 2 hr ([1]; single dose, peripheral blood, 2 hr post dose (TABLE 10)): 3.67 ± 1.09 (×10^3)/mL; No. CFU (×10^3)/mL ± SD, 4 hr ([1]; single dose, peripheral blood, 4 hr post dose (TABLE 10)): 0.57 ± 0.21 (×10^3)/mL; No. CFU (×10^3)/mL ± SD, 6 hr ([1]; single dose, peripheral blood, 6 hr post dose (TABLE 10)): 0.28 ± 0.17 (×10^3)/mL
5 | – | 0.199 | – | 0.199 | 0.199 | COc1cc(CO)cc(OC)c1-c1ccc(C[C@H](NC(=O)[C@@H]2CCCN2S(=O)(=O)c2cc(Cl)cc(Cl)c2)C(=O)O)cc1 [Example C8] | – | have returned to baseline | – | – | – | – | 0.85 ± 0.30 (×10^3)/mL | 0.87 ± 0.30 (×10^3)/mL | 0.27 ± 0.36 (×10^3)/mL | 2.74 ± 0.69 (×10^3)/mL | 2.10 ± 0.85 (×10^3)/mL | 0.42 ± 0.15 (×10^3)/mL | –
